Five compounds from PMC4322967, “Afatinib circumvents multidrug resistance via dually inhibiting ATP binding cassette subfamily G member 2 in vitro and in vivo” (Oncotarget, 2014) can be followed below.

What all share (type): cell-based
Data set [1] has as its target T1, ABCG2 (Homo sapiens, UniProt Q9UNQ0).
T1 sequence (Q9UNQ0 1-655): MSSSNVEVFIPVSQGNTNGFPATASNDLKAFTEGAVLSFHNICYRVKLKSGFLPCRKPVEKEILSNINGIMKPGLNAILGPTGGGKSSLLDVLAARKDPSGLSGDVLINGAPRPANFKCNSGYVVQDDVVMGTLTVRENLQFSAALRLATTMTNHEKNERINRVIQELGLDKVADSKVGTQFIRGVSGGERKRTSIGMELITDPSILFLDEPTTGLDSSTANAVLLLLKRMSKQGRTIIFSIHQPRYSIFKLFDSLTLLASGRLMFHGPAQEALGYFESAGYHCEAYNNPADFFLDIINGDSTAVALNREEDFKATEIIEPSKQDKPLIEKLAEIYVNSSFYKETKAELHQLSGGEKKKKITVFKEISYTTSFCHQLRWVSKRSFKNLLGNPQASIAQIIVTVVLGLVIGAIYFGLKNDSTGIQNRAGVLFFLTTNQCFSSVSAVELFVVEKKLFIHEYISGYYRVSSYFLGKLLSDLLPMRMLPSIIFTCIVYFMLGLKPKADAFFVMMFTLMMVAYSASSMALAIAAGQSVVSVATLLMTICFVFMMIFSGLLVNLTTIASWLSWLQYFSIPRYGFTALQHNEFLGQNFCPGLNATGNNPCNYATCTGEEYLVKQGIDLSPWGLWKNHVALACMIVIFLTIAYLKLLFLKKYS
As to the kind of experiment: vanadate-sensitive ATPase assay in crude membranes; also 5D3 shift and PhA efflux inhibition in HEK293/ABCG2 cells. More on the design: crude membranes from ABCG2-expressing High Five insect cells.

Data set [2] concerns the target T1, ABCG2. The arrangement: ABCG2-stably transfected HEK293 cells.
Data set [3] addresses T1, ABCG2. In words: 5D3 conformational antibody shift at […], flow cytometry. More on the design: ABCG2-stably transfected HEK293 cells. (A flow cytometer gives signals particle by particle.)
Data set [4] has as its target T1, ABCG2. In words: flow cytometry efflux of […] PhA in HEK293/ABCG2 versus pcDNA3 cells. The arrangement: HEK293 cells stably transfected with ABCG2.
For data set [5], the target named is T1, ABCG2. As to the kind of experiment: 5D3 conformational antibody shift at […], flow cytometry. More on the design: ABCG2-stably transfected HEK293 cells. The source holds these as a separate data set.

For `CN(C)C/C=C/C(=O)Nc1cc2c(Nc3ccc(F)c(Cl)c3)ncnc2cc1O[C@H]1CCOC1` [Afatinib], the “vanadate-sensitive ATPase assay in crude membranes; also 5D3 shift and PhA efflu” value on ABCG2 [1] was “afatinib was found to inhibit the ATPase activity of ABCG2 in a dose dependent manner”. As for `C#Cc1cccc(Nc2ncnc3cc(OCCOC)c(OCCOC)cc23)c1` [erlotinib], the “5D3 conformational antibody shift at 10 μM, flow cytometry” value on ABCG2 [2] is “Other known ABCG2 inhibitors (including FTC, tariquidar and erlotinib) tested were also shown to notably increase 5D3 labeling”.

Consider `COc1ccc2c3c([nH]c2c1)[C@H](C=C(C)C)N1C(=O)[C@@H]2CCCN2C(=O)[C@@H]1C3` [fumitremorgin C], for which, on ABCG2 [3], the “5D3 conformational antibody shift at 5 μM, flow cytometry” value is “Other known ABCG2 inhibitors (including FTC, tariquidar and erlotinib) tested were also shown to notably increase 5D3 labeling”. Take `C=Cc1c(C)c2cc3nc(c4c5[nH]c(cc6nc(cc1[nH]2)C(C)=C6CC)c(C)c5C(=O)[C@@H]4C(=O)OC)[C@@H](CCC(=O)O)[C@@H]3C` [pheophorbide A]: the “flow cytometry efflux of 1 μM PhA in HEK293/ABCG2 versus pcDNA3 cells” value on ABCG2 [4] is reported as “fluorescent ABCG2 probe substrate (pheophorbide A, PhA) for efflux was studied in HEK293/ABCG2 cells by flow cytometry analysis”. With `COc1cc2c(cc1OC)CN(CCc1ccc(NC(=O)c3cc(OC)c(OC)cc3NC(=O)c3cnc4ccccc4c3)cc1)CC2` [tariquidar], on ABCG2 [5], the “5D3 conformational antibody shift at 1 μM, flow cytometry” value was “Other known ABCG2 inhibitors (including FTC, tariquidar and erlotinib) tested were also shown to notably increase 5D3 labeling”.
